One block for each molecule: values may come before it.
Test: xn = mol fraction of the nth substance listed
Settings: 298.15 K, 101 kPa

SMILES: CC(C)=O + CC(=O)[O-].CCCC[n+]1ccn(C)c1
speed of sound (x1 = 1): 1163 m/s

speed of sound (x1 = 1): 1495 m/s
SMILES: O + CC(=O)[O-].CC[n+]1ccn(C)c1

SMILES: CC(=O)[O-].CCCC[n+]1ccn(C)c1 + CC(C)=O
speed of sound (x2 = 0): 1650 m/s
speed of sound (x2 = 0.2024): 1600 m/s
speed of sound (x2 = 0.3155): 1566 m/s
speed of sound (x2 = 0.49): 1497 m/s
speed of sound (x2 = 0.5915): 1445 m/s
speed of sound (x2 = 0.689): 1384 m/s
speed of sound (x2 = 0.8036): 1301 m/s
speed of sound (x2 = 0.8357): 1276 m/s

SMILES: CC[n+]1ccn(C)c1.N#C[S-] + CC(C)=O
speed of sound (x2 = 0): 1851 m/s
speed of sound (x2 = 0.1125): 1824 m/s
speed of sound (x2 = 0.1889): 1798 m/s
speed of sound (x2 = 0.3058): 1758 m/s
speed of sound (x2 = 0.3917): 1720 m/s
speed of sound (x2 = 0.5127): 1652 m/s
speed of sound (x2 = 0.6): 1590 m/s
speed of sound (x2 = 0.6892): 1513 m/s
speed of sound (x2 = 0.7842): 1417 m/s
speed of sound (x2 = 0.9008): 1286 m/s

SMILES: CC(C)=O + CC[n+]1ccn(C)c1.N#C[S-]
speed of sound (x1 = 1): 1166 m/s

SMILES: CC(=O)[O-].CC[n+]1ccn(C)c1 + O
speed of sound (x2 = 0): 1735 m/s
speed of sound (x2 = 0.1306): 1754 m/s
speed of sound (x2 = 0.2326): 1763 m/s
speed of sound (x2 = 0.2865): 1781 m/s
speed of sound (x2 = 0.3671): 1795 m/s
speed of sound (x2 = 0.4047): 1803 m/s
speed of sound (x2 = 0.4896): 1811 m/s
speed of sound (x2 = 0.5258): 1838 m/s
speed of sound (x2 = 0.5507): 1841 m/s
speed of sound (x2 = 0.7151): 1910 m/s
speed of sound (x2 = 0.7317): 1922 m/s
speed of sound (x2 = 0.8099): 1952 m/s
speed of sound (x2 = 0.9053): 1915 m/s

Source: a compilation of properties of binary mixtures (doi:10.1016/j.molliq.2021.118292)
